Measurements published in patent US9815851B2, “Pyrrolo carboxamides as modulators of orphan nuclear receptor RAR-related orphan receptor-gamma (RORγ, NR1F3) activity and for the treatment of chronic inflammatory and autoimmune diseases” (PHENEX PHARMACEUTICALS AG, priority 2011, dated 2017).
Where two headings read alike, the source gives them in different places.

How the values were obtained:
RORγ = target: T1, RORγ (UniProt P51449); assay: RORγ Gal4 Reporter Gene Assay in 293T cells (firefly and renilla luciferase); assay type: cell-based, human
T1 sequence (P51449 1-518): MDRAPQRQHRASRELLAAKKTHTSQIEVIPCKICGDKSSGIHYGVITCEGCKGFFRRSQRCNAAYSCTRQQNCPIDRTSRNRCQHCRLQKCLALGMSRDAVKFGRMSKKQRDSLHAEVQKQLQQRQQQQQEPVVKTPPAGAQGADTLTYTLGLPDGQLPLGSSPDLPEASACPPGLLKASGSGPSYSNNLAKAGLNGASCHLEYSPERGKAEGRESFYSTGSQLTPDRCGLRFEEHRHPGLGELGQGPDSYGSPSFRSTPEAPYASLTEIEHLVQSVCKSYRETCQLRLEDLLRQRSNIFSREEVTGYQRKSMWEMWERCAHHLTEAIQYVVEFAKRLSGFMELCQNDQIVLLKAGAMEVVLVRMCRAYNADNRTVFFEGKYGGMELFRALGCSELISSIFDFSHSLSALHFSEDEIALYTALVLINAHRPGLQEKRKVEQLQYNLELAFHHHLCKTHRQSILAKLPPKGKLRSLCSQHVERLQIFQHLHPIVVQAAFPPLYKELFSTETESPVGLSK

[1] = target: T2, RORγ ligand binding domain (LBD) (Homo sapiens, UniProt P51449); assay: TR-FRET Activity Assay (ligand sensing, RORγ-LBD / coactivator peptide interaction, LANCE); assay type: biochemical
T2 construct: made in house; host or cells: E. coli BL-21 (BL3), vector pDEST15
T2 sequence (P51449 269-508 limits assumed): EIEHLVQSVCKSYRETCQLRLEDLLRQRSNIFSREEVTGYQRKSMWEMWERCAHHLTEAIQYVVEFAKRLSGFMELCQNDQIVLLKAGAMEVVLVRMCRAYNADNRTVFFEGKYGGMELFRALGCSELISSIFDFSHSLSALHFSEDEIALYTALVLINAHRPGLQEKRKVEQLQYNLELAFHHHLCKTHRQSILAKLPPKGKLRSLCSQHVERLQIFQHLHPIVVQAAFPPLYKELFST

[2] = second value of the cell, Gal4 reporter gene assay in 293T cells, firefly luciferase
[3] = third value of the cell, Gal4 reporter gene assay in 293T cells, renilla normalised luciferase
[4] = first value of the cell FRET/FF/REN, TR-FRET activity assay, read-out: pIC50 (FRET) (converted)

SMILES | pIC50 (FF) (RORγ; [2]) | pIC50 (REN) (RORγ; [3]) | IC50 [1, 4] [nM] | pIC50 (FF) (RORγ) | pIC50 (REN) (RORγ) | IC50 [1] [nM]
Cc1c(C(=O)NCCc2noc(=O)[nH]2)cc(-c2ccc(S(=O)(=O)NC(C)(C)C)c(C(C)(C)O)c2)n1CC1CCCCC1 [17/333] | 6.4 | 6.3 | 398 |  |  | 
Cc1c(C(=O)NC23CCC(C(=O)O)(CC2)CC3)cc(-c2ccc(S(=O)(=O)NC(C)(C)C)c(C(F)(F)F)c2)n1CC1CCCCC1 [17/182] |  |  |  | 6.3/7.8/7.9 | 6.3/7.8/7.9 | 501
COC(=O)[C@H]1C[C@H](NC(=O)c2cc(-c3cc(C(C)(C)C)cc(C4(C)CC4)c3)n(CC3CCCCC3)c2C)C1 [17/154] | 7.2 | 7.3 | 316 |  |  | 
Cc1c(C(=O)NC2C[S+]([O-])C2)cc(-c2ccc(S(=O)(=O)NC(C)(C)C)c(C(C)(C)C)c2)n1CC1CCCCC1 (stereo not drawn) [2/1] |  |  |  | 6.1/6.5/6.5 | 6.1/6.5/6.5 | 794
Cc1c(C(=O)NCCS(N)(=O)=O)cc(-c2cc(C(C)(C)C)cc(C(C)(C)C)c2)n1CC1CCCCC1 [1/9] |  |  |  | 6.5/6.6/6.7 | 6.5/6.6/6.7 | 316
CC(C)(C)NS(=O)(=O)c1ccc(-c2cc(C(=O)NCC3(O)CCOCC3)c(C(F)(F)F)n2CC2CCCCC2)cc1C(C)(C)C [1/27] | < 4.7 | < 4.7 | 12600 |  |  | 
Cc1c(C(=O)NCC(C)(C)O)cc(-c2ccc(S(=O)(=O)NC(C)(C)C)c3ccccc23)n1CC1CCC(F)CC1 (stereo not drawn) [17/374] | 7.3 | 7.3 | 1580 |  |  | 
Cc1c(C(=O)NC2(CO)CC2)cc(-c2cc(C(C)(C)C)cc(C(C)(C)C)c2)n1CC1CCCCC1 [1/58] |  |  |  | 6.2/6.2/6.2 | 6.2/6.2/6.2 | 631
Cc1c(C(=O)NC2COC2)cc(-c2cc(C(C)(C)C)cc(C(C)(C)C)c2)n1CC1Cc2ccccc2C1 [1/118] | 6.5 | 6.6 | 631 |  |  | 
Cc1c(C(=O)NCC2COC2)cc(-c2ccc(S(=O)(=O)NC(C)(C)C)c(C(C)(C)C)c2)n1CC1CCCCC1 [1/126] | 7.1 | 7.0 | 631 |  |  | 
Cc1c(C(=O)NC2COC2)cc(-c2cc(C(C)C)c3c(c2)C(C)(C)N(C(C)C)S3(=O)=O)n1CC1CCCCC1 [1/22] | 6.9 | 6.9 | 1000 |  |  | 
Cc1c(C(=O)NC2(C)CCOCC2)cc(-c2ccc(S(=O)(=O)NC(C)(C)C)c(C(C)(C)C)c2)n1CC1CCCCC1 [17/206] |  |  |  | 6.2/7.0/7.2 | 6.2/7.0/7.2 | 631
Cc1c(C(=O)NCC(C)(C)O)cc(-c2cc(C(=O)N(C)C(C)(C)C)cc(C3(C)CC3)c2)n1CC1CCCCC1 [1/110] | 7.3 | 7.4 | 794 |  |  | 
Cc1c(C(=O)NCC(C)(C)C(=O)O)cc(-c2cc(C(C)(C)C)cc(C3(C)CC3)c2)n1CC1CCCCC1 [17/60] | 7.6 | 7.6 | 1580 |  |  | 
CCCNS(=O)(=O)c1ccc(-c2cc(C(=O)NC3CCOCC3)c(C)n2CC2CCCCC2)cc1C(F)(F)F [17/111] | 7.2 | 7.3 | 316 |  |  | 
Cc1c(C(=O)N2CC3(CCOCC3)C2)cc(-c2ccc(S(=O)(=O)NC(C)(C)C)c3ccccc23)n1CC1CCCCC1 [17/266] | 8.3 | 8.5 | 251 |  |  | 
Cc1c(C(=O)NC2CCOCC2)cc(-c2cc(F)c(NS(=O)(=O)C(C)(C)C)c(C(F)(F)F)c2)n1CC1CCCCC1 [17/248] | 6.4 | 7.3 | 2510 |  |  | 
Cc1c(C(=O)NC2CCOCC2)cc(-c2ccc(C(=O)N(C)C)c(C(C)(C)C)c2)n1CC1CCCCC1 [6/5] | 6.5 | 6.4 | 2510 |  |  | 
Cc1c(C(=O)N[C@H]2C[C@H](C(=O)O)C2)c(Cl)c(-c2cc(C(C)(C)O)cc(C3(C)CC3)c2)n1CC1CCCCC1 [29/1] | 6.8 | 6.8 | 3160 |  |  | 
Cc1c(C(=O)NCc2nc(C(=O)O)co2)cc(-c2cc(C(C)(C)C)c3c(c2)C2(CCO3)CC2)n1CC1CCCCC1 [17/16] | 6.1 | 6.0 | 3980 |  |  | 
Cc1c(C(=O)NC2CN(C(=O)OC(C)(C)C)C2)cc(-c2cc(C(C)(C)C)cc(C(C)(C)C)c2)n1CC1CCCCC1 [1/15] | 5.5/5.5/5.5 | 5.5/5.5/5.5 | 3160 |  |  | 

SMILES | pIC50 (FF) (RORγ; [2]) | pIC50 (REN) (RORγ; [3]) | IC50 [1, 4] [nM] | pIC50 (FF) (RORγ) | pIC50 (REN) (RORγ) | IC50 [1] [nM]
Cc1c(C(=O)NC2CCOCC2)cc(-c2ccc(S(=O)(=O)NC(C)(C)C)c(C(F)(F)F)c2F)n1CC1CCCCC1 [17/231] | 7.5 | 7.7 | 251 |  |  | 
Cc1c(C(=O)NC[C@H]2CC[C@H](C(=O)O)CC2)cc(-c2cc(C(C)(C)C)c3c(c2)C2(CCO3)CC2)n1CC1CCCCC1 [17/59] |  |  |  | 5.7/6.6/6.6 | 5.7/6.6/6.6 | 2000
Cc1c(C(=O)NCC(C)(C)C(=O)O)cc(-c2ccc(S(=O)(=O)NC(C)(C)C)c(OC(F)(F)F)c2)n1CC1CCCCC1 [17/173] | 7.3 | 7.3 | 316 |  |  | 
Cc1c(C(=O)NC2CCOCC2)cc(-c2ccc(S(=O)(=O)NC(C)C(C)(C)O)c(C(F)(F)F)c2)n1CC1CCCCC1 (stereo not drawn) [17/146] | 7.4 | 7.5 | 1000 |  |  | 
Cc1c(C(=O)N[C@H]2C[C@H](C(=O)O)C2)cc(-c2ccc(S(=O)(=O)NC(C)(C)C)c(C(C)(C)O)c2)n1CC1CCCCC1 [17/328] | 6.6 | 6.6 | 501 |  |  | 
Cc1c(C(=O)NC2CCOCC2)cc(-c2ccc(S(=O)(=O)NC3CCC3)c(C(C)(C)C)c2)n1CC1CCCCC1 [17/228] | 7.7 | 7.7 | 398 |  |  | 
Cc1c(C(=O)NCC(C)(C)C(N)=O)cc(-c2ccc(S(=O)(=O)NC(C)(C)C)c(C(C)(C)C)c2)n1CC1CCCCC1 [1/125] | 7.4 | 7.4 | 794 |  |  | 
Cc1c(C(=O)NC2CCOCC2)cc(-c2ccc(S(=O)(=O)NC(C)(C)C)c(C(F)(F)F)c2)n1CC1CCC1 [17/215] | 7.5 | 7.3 | 316 |  |  | 
Cc1c(C(=O)NC2CCOCC2)cc(-c2ccc(S(=O)(=O)N[C@@H](C)C(F)(F)F)c(C(C)(C)C)c2)n1CC1CCCCC1 [17/151] | 8.3 | 8.3 | 316 |  |  | 
Cc1c(C(=O)NC2COC2)cc(-c2cc(C(=O)NC(C)C)cc(C(F)(F)F)c2)n1CC1CCCCC1 [15/2] | 6.3 | 6.3 | 1000 |  |  | 
Cc1c(C(=O)NCC2(O)CCOCC2)cc(-c2cc(C(C)(C)C)c3c(c2)C(C)(C)C(=O)N3C)n1CC1CCCCC1 [17/48] | 7.6 | 7.5 | 1000 |  |  | 
Cc1c(C(=O)NCC(C)(C)CC(N)=O)cc(-c2cc(C(C)(C)C)c3c(c2)C2(CCO3)CC2)n1CC1CCCCC1 [17/20] | 7.1 | 7.1 | 398 |  |  | 
Cc1c(C(=O)NCC(C)(C)C(=O)O)cc(-c2cc(C(C)(C)C)c3c(c2)C(C)(C)C(=O)N3C)n1CC1CCCCC1 [17/49] | 7.0 | 7.1 | 2000 |  |  | 
Cc1c(C(=O)NCC2(C(N)=O)CCOCC2)cc(-c2ccc(S(=O)(=O)NC(C)(C)C)c(C(C)(C)C)c2)n1CC1CCCCC1 [17/90] |  |  |  | 5.8/7.9/8.0 | 5.8/7.9/8.0 | 1580
COC(C)(c1cc(-c2cc(C(=O)NC3CCOCC3)c(C)n2CC2CCCCC2)cc(C(C)(C)C)c1)C(F)(F)F (stereo not drawn) [17/186] | 6.9 | 7.1 | 398 |  |  | 
Cc1c(C(=O)NCCc2noc(=O)[nH]2)cc(-c2ccc(S(=O)(=O)NC(C)(C)C)c(C(C)(C)C)c2)n1CC1CCCCC1 [17/331] | 6.6 | 6.5 | 1260 |  |  | 
Cc1c(C(=O)NC[C@H](C)O)cc(-c2cc(C(C)(C)C)cc(C(C)(C)C)c2)n1CC1CCCCC1 [1/60] | 6.2 | 6.2 | 1000 |  |  | 
Cc1c(C(=O)NCC(C)(C)NC(=O)CO)cc(-c2cc(C(C)(C)C)c3c(c2)C2(CCO3)CC2)n1CC1CCCCC1 [17/30] | 7.7 | 7.7 | 251 |  |  | 
Cc1c(C(=O)NCC(C)(C)C(=O)NCCS(C)(=O)=O)cc(-c2cc(C(C)(C)C)c3c(c2)C2(CCO3)CC2)n1CC1CCCCC1 [11/4] | 6.9 | 7.0 | 398 |  |  | 
Cc1c(C(=O)NCC2(O)COC2)cc(-c2cc(C(C)(C)C)c3c(c2)C2(CCO3)CC2)n1CC1CCCCC1 [17/36] | 6.9 | 6.9 | 794 |  |  | 
